{"source": "patent US20040110821A1", "about": "“GAL3 receptor antagonists for the treatment of affective disorders” (priority 2002, published 2004)", "key": {"human GAL2 receptor": {"biological_target": "T1, human GAL2 receptor (Homo sapiens, UniProt O43603)", "T1 construct": "expressed in transfected cells", "T1 sequence (O43603 1-387)": "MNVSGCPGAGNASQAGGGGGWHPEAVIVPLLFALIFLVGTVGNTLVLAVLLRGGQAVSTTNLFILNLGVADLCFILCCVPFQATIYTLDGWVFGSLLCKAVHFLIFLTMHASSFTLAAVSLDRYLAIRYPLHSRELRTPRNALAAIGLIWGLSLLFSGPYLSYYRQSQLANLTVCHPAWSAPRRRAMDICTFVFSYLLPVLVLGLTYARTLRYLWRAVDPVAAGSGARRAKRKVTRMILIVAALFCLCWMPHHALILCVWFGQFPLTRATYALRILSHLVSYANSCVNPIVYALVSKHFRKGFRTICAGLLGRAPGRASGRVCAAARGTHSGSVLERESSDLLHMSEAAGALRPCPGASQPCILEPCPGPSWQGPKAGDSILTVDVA", "test": "Radioligand binding at cloned human GAL2 receptor", "details": "indolones, Table 4, read-out: Ki (nM) GalR 2", "procedure": "The present invention provides for a method of determining the binding affinity of a GAL3 antagonist, wherein the GAL3 antagonist is dissolved in a “suitable solvent”. A “suitable solvent” means one which permits the measurement of binding affinity of the GAL3 antagonist to the human GAL3 receptor at concentrations less than 1 μM, preferably less than 100 nM. Examples of solvents include, but are not limited to, DMSO, ethanol, N,N-dimethylacetamide, or water. For indolones, the preferred solvent is 3% DMSO (final concentration in the assay). For pyrimidines, the preferred solvent is 1% ethanol/0.09% polypuronic acid F-127 (final concentration in the assay). For any other type of compounds, the preferred solvent is the solvent which permits the measurement of binding affinity of a GAL3 antagonist at the lowest concentration. Once a suitable solvent is ascertained for the binding assay of the human GAL3 receptor, the same solvent is used in assays to determine the binding affinity for instance, at the GAL1 receptor.\nThe binding properties of the pyrimidines of the present invention were evaluated at the cloned human galanin receptors, GAL1, GAL2, and GAL3, using protocols described herein.\nThe binding properties of the indolones of the present invention were evaluated at the cloned human galanin receptors, GAL1, GAL2, and GAL3, using protocols described herein.\nLM(tk-) cells were stably transfected with the human GAL1 or GAL3 receptor. CHO cells were stably transfected with the human GAL2 receptor.\ncDNAs for the human and rat GAL1, and human and rat GAL3 receptors were transfected with a G-418 resistant gene into the mouse fibroblast LM(tk-) cell line by a calcium phosphate transfection method (Cullen, 1967). Stably transfected cells were selected with G-418. Human and rat GAL2 receptors were similarly transfected into CHO cells.\nMembranes were harvested from stably transfected LM(tk-) cells. Adherent cells were washed twice in ice-cold phosphate buffered saline (138 mM NaCl, 8.1 mM Na2HPO4, 2.5 mM KCl, 1.2 mM KH2PO4, 0.9 mM CaCl2, 0.5 mM MgCl2, pH 7.4) and lysed by sonication in ice-cold sonication buffer (20 mM Tris-HCl, 5 mM EDTA, pH 7.7). Large particles and debris were cleared by low speed centrifugation (200×g, 5 min, 4° C.). Membranes were collected from the supernatant fraction by centrifugation (32,000×g, 18 min, 4° C.), washed with ice-cold hypotonic buffer, and collected again by centrifugation (32,000×g, 18 min, 4° C.). The final membrane pellet was resuspended by sonication into a small volume of ice-cold binding buffer (−1 ml for every 5 plates: 10 mM NaCl, 20 mM HEPES, 0.22 mM KH2PO4, 1.26 mM CaCl2, 0.81 mM MgSO4, pH 7.4). Protein concentration was measured by the Bradford method (Bradford, 1976) using Bio-Rad Reagent, with bovine serum albumin as a standard. Membranes were held on ice for up to one hour and used fresh, or flash frozen and stored in liquid nitrogen. Membranes were prepared similarly from CHO cells.\nGalanin Receptors: Binding assays were performed according to the following published methods: human GAL3 (PCT International Publication No. WO 98/15570), human GAL1 (PCT International Publication No. WO 95/2260) human GAL2 (PCT International Publication No. WO 97/26853).\n(§1) Binding data were analyzed using nonlinear regression and statistical techniques available in the GraphPAD Prism package (San Diego, Calif.). Enzymatic assay data were derived from a standard curve of reference compound data."}, "human 5HT1E receptor": {"biological_target": "T2, human 5HT1E receptor (Homo sapiens, UniProt P28566)", "T2 construct": "expressed in transfected cells", "T2 sequence (P28566 whole entry)": "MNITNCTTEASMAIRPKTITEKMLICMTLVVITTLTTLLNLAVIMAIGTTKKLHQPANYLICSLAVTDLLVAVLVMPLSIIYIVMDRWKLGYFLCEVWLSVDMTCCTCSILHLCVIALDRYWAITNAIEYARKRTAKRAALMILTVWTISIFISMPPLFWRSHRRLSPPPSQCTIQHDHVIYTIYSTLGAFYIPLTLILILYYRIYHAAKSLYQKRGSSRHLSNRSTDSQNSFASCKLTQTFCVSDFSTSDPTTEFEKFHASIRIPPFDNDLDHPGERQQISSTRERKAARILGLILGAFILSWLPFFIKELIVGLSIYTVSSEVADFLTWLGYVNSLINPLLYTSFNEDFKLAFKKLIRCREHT", "test": "Radioligand binding at human 5HT1E receptor", "details": "read-out: h5HT1E Ki", "procedure": "Human 5HT1B, 5HT1D, 5HT1E, 5HT1F, and 5HT7 ReceDtors: The cell lysates of LM(tk-) clonal cell line stably transfected with the genes encoding each of these 5HT receptor-subtypes were prepared as described above. Cell membranes were suspended in 50 mM Tris-HCl buffer (pH 7.4 at 37° C.) containing 10 mM MgCl2, 0.2 mM EDTA, 10 µM pargyline, and 0.1% ascorbate. […] Nonspecific binding was determined in the presence of 10 μM serotonin. The bound radioligand was separated by filtration through GF/B filters using a cell harvester.\nas §1"}, "5HT transporter": {"biological_target": "T3, 5HT transporter (Rattus norvegicus, UniProt P31652)", "T3 construct": "native, tissue-derived transporters; from tissue", "T3 sequence (P31652 whole entry)": "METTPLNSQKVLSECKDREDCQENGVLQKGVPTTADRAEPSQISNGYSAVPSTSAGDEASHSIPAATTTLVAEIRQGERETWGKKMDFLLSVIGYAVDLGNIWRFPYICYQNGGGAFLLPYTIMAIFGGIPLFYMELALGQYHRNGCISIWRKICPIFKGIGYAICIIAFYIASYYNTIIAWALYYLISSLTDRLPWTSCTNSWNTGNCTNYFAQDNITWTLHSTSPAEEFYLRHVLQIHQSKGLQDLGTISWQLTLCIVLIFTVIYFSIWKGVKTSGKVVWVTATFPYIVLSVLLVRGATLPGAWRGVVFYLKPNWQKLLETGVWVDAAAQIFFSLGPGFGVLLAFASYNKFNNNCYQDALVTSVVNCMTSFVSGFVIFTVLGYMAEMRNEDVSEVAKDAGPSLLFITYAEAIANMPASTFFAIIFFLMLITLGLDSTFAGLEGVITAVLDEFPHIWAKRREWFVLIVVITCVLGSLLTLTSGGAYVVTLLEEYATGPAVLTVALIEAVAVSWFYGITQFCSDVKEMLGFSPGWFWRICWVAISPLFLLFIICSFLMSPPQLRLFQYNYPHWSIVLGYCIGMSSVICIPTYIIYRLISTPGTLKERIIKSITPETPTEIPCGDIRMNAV", "test": "Binding at native 5HT transporter", "details": "read-out: r5HT Uptk Ki", "procedure": "The methods to determine binding affinity at native transporters are described in the following publications: 5HT transporter and NE transporter (Owens et al., 1997), and DA transporter (Javitch et al, 1984).\nas §1"}, "[1]": {"biological_target": "T4, human α2C adrenergic receptor (Homo sapiens, UniProt P18825)", "T4 construct": "expressed in transfected cells", "T4 sequence (P18825 whole entry)": "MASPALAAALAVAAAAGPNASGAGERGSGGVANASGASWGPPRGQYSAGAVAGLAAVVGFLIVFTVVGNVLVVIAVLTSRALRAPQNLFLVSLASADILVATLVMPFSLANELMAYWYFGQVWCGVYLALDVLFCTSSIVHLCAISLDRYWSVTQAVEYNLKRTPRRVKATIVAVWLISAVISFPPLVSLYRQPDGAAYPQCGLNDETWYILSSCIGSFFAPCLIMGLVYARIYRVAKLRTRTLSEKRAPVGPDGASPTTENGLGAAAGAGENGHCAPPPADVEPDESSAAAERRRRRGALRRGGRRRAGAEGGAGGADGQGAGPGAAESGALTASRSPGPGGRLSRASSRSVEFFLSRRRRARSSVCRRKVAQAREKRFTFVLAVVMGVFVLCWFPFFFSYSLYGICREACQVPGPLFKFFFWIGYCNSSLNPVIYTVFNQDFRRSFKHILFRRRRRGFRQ", "test": "Binding at human α2C adrenergic receptor", "details": "read-out: hα2C Ki", "description": "(§2) Other receptors: Cell membranes expressing human dopamine D1, D2, D4 and rat D3 receptors were purchased through BioSignal, Inc. (Montreal, Canada). Binding assays using the histamine H1 receptor; dopamine receptors; and α1A, α1B, and α2 adrenergic receptors may be carried out according to the procedures described in U.S. Pat. No. 5,780,485, the disclosure of which is hereby incorporated by reference in its entirety into this application. Binding assays using the dopamine D5 receptor may be carried out according to the procedures described in U.S. Pat. No. 5,882,855, the disclosure of which is hereby incorporated by reference in its entirety into this application. Binding assays for the human α1D adrenergic receptor may be carried out according to the procedures described in U.S. Pat. No. 6,156,518, the disclosure of which is hereby incorporated by reference in its entirety into this application.\nas §1"}, "[2]": {"biological_target": "T5, human H1 histamine receptor (Homo sapiens, UniProt P35367)", "T5 construct": "expressed in transfected cells", "T5 sequence (P35367 whole entry)": "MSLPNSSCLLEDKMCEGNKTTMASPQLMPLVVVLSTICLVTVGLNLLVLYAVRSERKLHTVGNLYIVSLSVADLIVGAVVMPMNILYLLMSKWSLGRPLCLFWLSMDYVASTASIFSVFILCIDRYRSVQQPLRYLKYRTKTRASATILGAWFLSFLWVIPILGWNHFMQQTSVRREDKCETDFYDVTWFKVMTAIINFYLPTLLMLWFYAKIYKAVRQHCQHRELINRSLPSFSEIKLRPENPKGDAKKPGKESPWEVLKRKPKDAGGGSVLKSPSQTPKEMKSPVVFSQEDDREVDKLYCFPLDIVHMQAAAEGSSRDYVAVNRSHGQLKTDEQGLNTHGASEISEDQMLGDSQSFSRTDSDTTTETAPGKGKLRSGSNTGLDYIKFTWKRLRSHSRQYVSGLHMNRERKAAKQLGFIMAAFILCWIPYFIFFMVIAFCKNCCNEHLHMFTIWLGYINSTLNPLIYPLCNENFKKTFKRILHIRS", "test": "Binding at histamine H1 receptor", "details": "read-out: hH1 Ki", "description": "as §2, §1"}}, "data": [{"smiles": "O=C1C(=Nc2cccc(C(F)(F)F)c2)c2ccccc2N1c1ccccc1", "note": "[Example 92, 1-PHENYL-3-[[3-(TRIFLUOROMETHYL)PHENYL]IMINO]-1,3-DIHYDRO-2H-INDOL-2-ONE]", "values": [{"measurement": "Ki", "setting": "human GAL2 receptor", "result": "> 10000", "unit": "nM"}, {"measurement": "Ki", "setting": "human 5HT1E receptor", "result": 18.9, "unit": "µM"}, {"measurement": "Ki", "setting": "5HT transporter", "result": 45.1, "unit": "µM"}, {"measurement": "Ki", "setting": "[1]", "result": "> 50", "unit": "µM"}, {"measurement": "Ki", "setting": "[2]", "result": 39.9, "unit": "µM"}]}]}
